The record followed here is US20260355169A1, “METHODS OF TREATING CANCERS USING ISOQUINOLINE OR 6-AZA-QUINOLINE DERIVATIVES” (Black Diamond Therapeutics, Inc., priority 2022, published 2026).

In general, IC50 refers to the concentration at which inhibition is half-maximal.

For this assay, the system named is BaF3 BRAF-KIAA1549 fusion cells. In words: BaF3 BRAF-KIAA1549 fusion cell proliferation assay. Type of assay: cell-based. The conditions noted are these: Mus musculus, BaF3, 96 h, read-out: IC50, inhibition of cell growth, BaF3-BRAF:KIAA1549 Fusion. The method, then:
Retroviral Production: The BRAF-KIAA1549 fusion mutant was subcloned into pMXs-IRES-Blasticidin (RTV-016, Cell Biolabs, San Diego, CA). […]. Briefly, HEK 293T cells were plated in Poly-D-lysine coated 6-well plate (2.5×10^5 cells per well) and incubated overnight. The next day, retroviral plasmids (1 μg of BRAF-KIAA fusion mutant, 0.32 μg of pCMV-Gag-Pol and 0.165 μg pCMV-VSV-G) were mixed in 300 μL of Optimem (31985, Life Technologies). The mixture was incubated at room temperature for 5 minutes and then added to Optimem containing transfection reagent Lipofectamine (11668, Invitrogen) and incubated for 20 minutes. The mixture was then added dropwise to HEK 293T cells. The next day the medium was replaced with fresh culture medium and retrovirus was harvested at 24 hours.
Generation of BRAF-KIAA1549 fusion stable cell line: BaF3 cells were plated in V-bottom 96 well plate (COSTAR #3894) in 80 μL of RPMI/10% FBS and 0.01 ng/mL mouse IL-3, supplemented with 8 μg/mL polybrene (4×10^4 cells/well). Cells were transduced with 20 μL of BRAF-KIAA1549 fusion viral supernatant by centrifuging for 30 minutes at 1000 rpm. Cells were placed in a 37 °C incubator overnight. Next day 100 μL of RPMI/10% FBS and 0.01 ng/mL mouse IL-3 was added. After 24 hours, 100 μL of cells were transferred to a 24 well plate containing 900 μL of RPMI/10% FBS and 15 μg/mL Blasticidin. Contents of the 24 well plate were sampled for cell viability via CellTiterGlo (Promega) over a 2-week period.
Assay for cell proliferation: BaF3 BRAF-KIAA1549 fusion cells were resuspended at 1.5×10^5 c/mL in RPMI containing 10% Heat Inactivated FBS, 1% L-glutamine and dispensed in duplicate ([…]) into 384 well plates. To determine the effect of compound on cell proliferation, BaF3 BRAF-KIAA1549 fusion cells were incubated for 96 hours in the presence of vehicle control (DMSO) or compound at varying concentrations. Inhibition of cell growth was determined by luminescent quantification (Envision by Perkin Elmer) of intracellular ATP content using CellTiterGlo (Promega), according to the protocol provided by the manufacturer. To determine the IC50 values, the vehicle-treated cells were normalized as viable cells and analyzed using the CDD Vault, Collaborative Drug Discovery, Burlingame, CA (the Levenberg-Marquardt algorithm; Levenberg, K, […]; Marquardt, D., 1963).
Table A assigns each compound a code for potency in the BaF3 BRAF-KIAA1549 fusion cell proliferation assay: A, B, C, or D. According to the code, A represents an IC50 value<20 nM; B represents an IC50 value≥20 nM and <100 nM; C represents an IC50 value≥100 nM and <500 nM; and D represents an IC50 value≥500 nM.

With `CNc1cc2ncc(-c3cc(NC(=O)c4nccc(C(F)(F)F)c4F)cnc3C)cc2cn1` [compound 52], the IC50 was less than 20 nM.
As to `CNc1cc2ncc(-c3cc(C(=O)Nc4cc(C(C)(C)C#N)ccn4)ccc3C)cc2cn1` [compound 53], the IC50 lay within 20 to 100 nM.
Consider `CNc1cc2ncc(-c3cc(NC(=O)c4ccnc(C(C)(C)C#N)c4)cnc3C)cc2cn1` [compound 55], for which the IC50 is less than 20 nM.
As to `CNc1cc2ncc(-c3cc(NC(=O)c4ccnc(C(C)(C)C#N)c4)ccc3C)cc2cn1` [compound 56], the IC50 fell in the range of 20 to 100 nM.
With `CNc1cc2ncc(-c3cc(NC(=O)c4ccnc(C(C)C)c4)cnc3C)cc2cn1` [compound 57], the IC50 was less than 20 nM.
Turning to `CNc1ncc2cc(-c3cc(NC(=O)c4ccnc(C(C)(C)C)c4)cnc3C)cnc2n1` [compound 58], the 50% inhibitory concentration (IC50) was 20 to 100 nM.
Regarding `CNc1cc2ncc(-c3cc(C(=O)Nc4cc(C(C)(C)C#N)ccn4)cnc3C)cc2cn1` [compound 59], the IC50 lay in the range of 20 to 100 nM.
In the case of `CNc1cc2ncc(-c3cc(NC(=O)c4cc(C(F)(F)F)c(F)cn4)cnc3C)cc2cn1` [compound 60], the IC50 was less than 20 nM.
In the case of `CNc1cc2ncc(-c3cc(NC(=N)c4cc(C(F)(F)F)ccn4)ccc3C)cc2cn1` [compound 61] it was 100 to 500 nM; in that of `CNc1cc2ncc(-c3cc(NC(=O)CN4CCC[C@H](C(F)(F)F)C4)cnc3C)cc2cn1` [compound 62], 20 to 100 nM.
For the compound `CNc1cc2ncc(-c3cc(NC(=O)CN4CCC[C@H](C(F)(F)F)C4)ccc3C)cc2cn1` [compound 63], the IC50 fell in the range of 20 to 100 nM.
For `CNc1cc2ncc(-c3cc(NC(=N)c4cc(C(F)(F)F)ccn4)cnc3C)cc2cn1` [compound 64], the IC50 was more than 500 nM.
With `CNc1cc2ncc(-c3cc(NC(=O)c4cc(C(C)(C)F)ccn4)cnc3C)cc2cn1` [compound 65], the IC50 fell in the range of 20 to 100 nM.
Regarding `CNc1cc2ncc(-c3cc(NC(=O)c4cc(C(F)F)c(F)cn4)cnc3C)cc2cn1` [compound 66], the IC50 was in the range of 20 to 100 nM.
With `CNc1cc2ncc(-c3cc(NC(=O)[C@H](C)n4cnc(C(F)(F)F)n4)ccc3C)cc2cn1` [compound 68], the IC50 lay within 20 to 100 nM.
As for `CNc1cc2ncc(-c3cc(NC(=O)[C@@H](C)n4cnc(C(F)(F)F)n4)ccc3C)cc2cn1` [compound 69], the IC50 was in the range of 100 to 500 nM.
In the case of `CNc1cc2ncc(-c3cc(NC(=O)c4cc(C(F)(F)F)c(OCCO)cn4)ccc3C)cc2cn1` [compound 71], the IC50 lay within 20 to 100 nM.
As to `CNc1cc2ncc(-c3cc(NC(=O)c4ccc(OC(F)F)cn4)cnc3C)cc2cn1` [compound 72], the IC50 is more than 500 nM.
Turning to `CNc1cc2ncc(-c3cc(NC(=O)c4cc(C(F)(F)F)ccn4)nnc3C)cc2cn1` [compound 75], the IC50 fell in the range of 20 to 100 nM.
Turning to `CNc1cc2ncc(-c3cc(NC(=O)c4cc(C(C)(C)C#N)ccn4)nnc3C)cc2cn1` [compound 77], the IC50 lay in the range of 20 to 100 nM.
Consider `Cc1ccc(NC(=O)c2cc(C(F)F)ccn2)cc1-c1cnc2cc(NCCC#N)ncc2c1` [compound 78], for which the IC50 was in the range of 20 to 100 nM.
With `CNc1cc2nc(C#N)c(-c3cc(NC(=O)c4ccnc(C(F)(F)F)c4)ccc3C)cc2cn1` [compound 79], the IC50 was less than 20 nM.
Take `CCNc1cc2ncc(-c3cc(NC(=O)c4ccnc(C5(F)CC5)c4)ccc3C)cc2cn1` [compound 153]: the IC50 lay in the range of 20 to 100 nM.
Turning to `Cc1ccc(NC(=O)c2ccnc(C3(F)CC3)c2)cc1-c1cnc2cc(N)ncc2c1` [compound 154], the IC50 is less than 20 nM.
As to `CCNc1cc2ncc(-c3cc(NC(=O)c4cc(C(C)(C)C#N)ccn4)ccc3C)cc2cn1` [compound 173], the IC50 fell in the range of 20 to 100 nM.
In the case of `Cc1ccc(NC(=O)c2cc(C(C)(C)C#N)ccn2)cc1-c1cnc2cc(N)ncc2c1` [compound 174], the IC50 lay in the range of 20 to 100 nM.
In the case of `CCNc1cc2ncc(-c3cc(NC(=O)c4cc(C(C)(C)C#N)ccn4)cnc3C)cc2cn1` [compound 175] it was 20 to 100 nM; in that of `Cc1ncc(NC(=O)c2cc(C(C)(C)C#N)ccn2)cc1-c1cnc2cc(N)ncc2c1` [compound 176], 20 to 100 nM.
